# Measurements: ChEMBL document CHEMBL1143353, “Pyrazolo[1,5-a]-1,3,5-triazine as a purine bioisostere: access to potent cyclin-dependent kinase inhibitor (R)-roscovitine analogue” (J Med Chem, 2009)
# Experiments:
# SH-SY5Y = experiment: Antiproliferative activity against human SH-SY5Y cells after 48 hrs by MTS reduction assay; format: functional, cell-based
# HEK293 = experiment: Antiproliferative activity against human HEK293 cells after 48 hrs by MTS reduction assay; format: cell-based; settings: HEK293, 48 h
# cells [1] = settings: Homo sapiens, HL-60, 72 h
# Description: Antiproliferative activity against human HL60(TB) cells after 72 hrs by ViaLight assay
# cells [2] = settings: Homo sapiens, RPMI8266, 72 h
# Description: Antiproliferative activity against human RPMI8266 cells after 72 hrs by ViaLight assay
# SR = experiment: cells; settings: Homo sapiens, 72 h
# Description: Antiproliferative activity against human SR cells after 72 hrs by ViaLight assay
# EKVX = experiment: cells; settings: Homo sapiens, 72 h
# Description: Antiproliferative activity against human EKVX cells after 72 hrs by ViaLight assay
# HOP-62 = experiment: cells; settings: Homo sapiens, HOP-62, 72 h
# Description: Antiproliferative activity against human HOP62 cells after 72 hrs by ViaLight assay
# NCI-H226 = experiment: cells; settings: Homo sapiens, NCI-H226, 72 h
# Description: Antiproliferative activity against human NCI-H226 cells after 72 hrs by ViaLight assay
# NCI-H23 = experiment: cells; settings: Homo sapiens, NCI-H23, 72 h
# Description: Antiproliferative activity against human NCI-H23 cells after 72 hrs by ViaLight assay
# NCI-H460 = experiment: cells; settings: Homo sapiens, NCI-H460, 72 h
# Description: Antiproliferative activity against human NCI-H460 cells after 72 hrs by ViaLight assay
# COLO 205 = experiment: cells; settings: Homo sapiens, COLO 205, 72 h
# Description: Antiproliferative activity against human COLO205 cells after 72 hrs by ViaLight assay
# HCC 2998 = experiment: cells; settings: Homo sapiens, HCC 2998, 72 h
# Description: Antiproliferative activity against human HCC2998 cells after 72 hrs by ViaLight assay
# HCT-15 = experiment: cells; settings: Homo sapiens, HCT-15, 72 h
# Description: Antiproliferative activity against human HCT15 cells after 72 hrs by ViaLight assay
# SF-539 = experiment: cells; settings: Homo sapiens, SF-539, 72 h
# Description: Antiproliferative activity against human SF539 cells after 72 hrs by ViaLight assay
# SNB-19 = experiment: cells; settings: Homo sapiens, SNB-19, 72 h
# Description: Antiproliferative activity against human SNB19 cells after 72 hrs by ViaLight assay
# SNB-75 = experiment: cells; settings: Homo sapiens, SNB-75, 72 h
# Description: Antiproliferative activity against human SNB75 cells after 72 hrs by ViaLight assay
# LOX IMVI = experiment: cells; settings: Homo sapiens, 72 h
# Description: Antiproliferative activity against human LOXIMVI cells after 72 hrs by ViaLight assay
# M14 = experiment: cells; settings: Homo sapiens, M14, 72 h
# Description: Antiproliferative activity against human M14 cells after 72 hrs by ViaLight assay
# SK-MEL-2 = experiment: cells; settings: Homo sapiens, SK-MEL-2, 72 h
# Description: Antiproliferative activity against human SK-MEL-2 cells after 72 hrs by ViaLight assay
# SK-MEL-5 = experiment: cells; settings: Homo sapiens, SK-MEL-5, 72 h
# Description: Antiproliferative activity against human SK-MEL-5 cells after 72 hrs by ViaLight assay
# OVCAR-4 = experiment: cells; settings: Homo sapiens, OVCAR-4, 72 h
# Description: Antiproliferative activity against human OVCAR4 cells after 72 hrs by ViaLight assay
# OVCAR-5 = experiment: cells; settings: Homo sapiens, OVCAR-5, 72 h
# Description: Antiproliferative activity against human OVCAR5 cells after 72 hrs by ViaLight assay
# 786-0 = experiment: cells; settings: Homo sapiens, 786-0, 72 h
# Description: Antiproliferative activity against human 786-0 cells after 72 hrs by ViaLight assay
# A498 = experiment: cells; settings: Homo sapiens, A498, 72 h
# Description: Antiproliferative activity against human A498 cells after 72 hrs by ViaLight assay
# ACHN = experiment: cells; settings: Homo sapiens, 72 h
# Description: Antiproliferative activity against human ACHN cells after 72 hrs by ViaLight assay
# CAKI-1 = experiment: cells; settings: Homo sapiens, CAKI-1, 72 h
# Description: Antiproliferative activity against human Caki1 cells after 72 hrs by ViaLight assay
# RXF 393 = experiment: cells; settings: Homo sapiens, RXF 393, 72 h
# Description: Antiproliferative activity against human RFX393 cells after 72 hrs by ViaLight assay
# TK-10 = experiment: cells; settings: Homo sapiens, TK-10, 72 h
# Description: Antiproliferative activity against human TK10 cells after 72 hrs by ViaLight assay
# DU-145 = experiment: cells; settings: Homo sapiens, DU-145, 72 h
# Description: Antiproliferative activity against human DU145 cells after 72 hrs by ViaLight assay
# T47D = experiment: cells; settings: Homo sapiens, 72 h
# Description: Antiproliferative activity against human T47D cells after 72 hrs by ViaLight assay
smiles,measurement,setting,value
CC[C@H](CO)Nc1nc(NCc2ccccc2)n2ncc(C(C)C)c2n1,IC50,SH-SY5Y,2.7 µM
same,IC50,HEK293,7.6 µM
same,GI50,cells [1],0.41 µM
same,TGI,cells [1],2.68 µM
same,CC50,cells [1]; read-out: LC50,> 100 µM
same,GI50,cells [1]; read-out: pGI50 (converted),0.407 µM
same,CC50,cells [1]; read-out: pLC50 (converted),100 µM
same,TGI,cells [1]; read-out: pTGI,2.69 µM
same,GI50,cells [2],2.23 µM
same,TGI,cells [2],6.93 µM
same,CC50,cells [2]; read-out: LC50,> 100 µM
same,GI50,cells [2]; read-out: pGI50 (converted),2.24 µM
same,CC50,cells [2]; read-out: pLC50 (converted),100 µM
same,TGI,cells [2]; read-out: pTGI,6.92 µM
same,GI50,SR,0.25 µM
same,TGI,SR,1.59 µM
same,CC50,SR; read-out: LC50,> 100 µM
same,GI50,SR; read-out: pGI50 (converted),2.51 µM
same,CC50,SR; read-out: pLC50 (converted),100 µM
same,TGI,SR; read-out: pTGI,1.58 µM
same,GI50,EKVX,2.41 µM
same,TGI,EKVX,9.13 µM
same,GI50,EKVX; read-out: pGI50 (converted),2.4 µM
same,TGI,EKVX; read-out: pTGI,9.12 µM
same,GI50,HOP-62,2.1 µM
same,TGI,HOP-62,8.72 µM
same,CC50,HOP-62; read-out: LC50,> 100 µM
same,GI50,HOP-62; read-out: pGI50 (converted),2.09 µM
same,CC50,HOP-62; read-out: pLC50 (converted),100 µM
same,TGI,HOP-62; read-out: pTGI,1.1 µM
same,GI50,NCI-H226,1.84 µM
same,TGI,NCI-H226,10.1 µM
same,CC50,NCI-H226; read-out: LC50,> 100 µM
same,GI50,NCI-H226; read-out: pGI50 (converted),1.86 µM
same,CC50,NCI-H226; read-out: pLC50 (converted),100 µM
same,TGI,NCI-H226; read-out: pTGI,10.5 µM
same,GI50,NCI-H23,1.71 µM
same,TGI,NCI-H23,7.79 µM
same,CC50,NCI-H23; read-out: LC50,> 100 µM
same,GI50,NCI-H23; read-out: pGI50 (converted),1.7 µM
same,CC50,NCI-H23; read-out: pLC50 (converted),100 µM
same,TGI,NCI-H23; read-out: pTGI,7.76 µM
same,GI50,NCI-H460,1.05 µM
same,TGI,NCI-H460,10.9 µM
same,CC50,NCI-H460; read-out: LC50,> 100 µM
same,GI50,NCI-H460; read-out: pGI50 (converted),1.05 µM
same,CC50,NCI-H460; read-out: pLC50 (converted),100 µM
same,TGI,NCI-H460; read-out: pTGI,11 µM
same,GI50,COLO 205,1.12 µM
same,TGI,COLO 205,3.15 µM
same,CC50,COLO 205; read-out: LC50,8.86 µM
same,GI50,COLO 205; read-out: pGI50 (converted),1.12 µM
same,CC50,COLO 205; read-out: pLC50 (converted),8.71 µM
same,TGI,COLO 205; read-out: pTGI,3.16 µM
same,GI50,HCC 2998,1.2 µM
same,TGI,HCC 2998,3.27 µM
same,CC50,HCC 2998; read-out: LC50,8.96 µM
same,GI50,HCC 2998; read-out: pGI50 (converted),1.2 µM
same,CC50,HCC 2998; read-out: pLC50 (converted),8.71 µM
same,TGI,HCC 2998; read-out: pTGI,3.24 µM
same,GI50,HCT-15,0.87 µM
same,TGI,HCT-15,10.5 µM
same,CC50,HCT-15; read-out: LC50,> 100 µM
same,GI50,HCT-15; read-out: pGI50 (converted),8.91 µM
same,CC50,HCT-15; read-out: pLC50 (converted),100 µM
same,TGI,HCT-15; read-out: pTGI,10.5 µM
same,GI50,SF-539,1.22 µM
same,TGI,SF-539,3.62 µM
same,CC50,SF-539; read-out: LC50,11.9 µM
same,GI50,SF-539; read-out: pGI50 (converted),1.23 µM
same,CC50,SF-539; read-out: pLC50 (converted),11.7 µM
same,TGI,SF-539; read-out: pTGI,3.63 µM
same,GI50,SNB-19,1.44 µM
same,TGI,SNB-19,12.3 µM
same,CC50,SNB-19; read-out: LC50,> 100 µM
same,GI50,SNB-19; read-out: pGI50 (converted),1.15 µM
same,CC50,SNB-19; read-out: pLC50 (converted),100 µM
same,TGI,SNB-19; read-out: pTGI,12.3 µM
same,GI50,SNB-75,1.31 µM
same,TGI,SNB-75,3.33 µM
same,CC50,SNB-75; read-out: LC50,8.48 µM
same,GI50,SNB-75; read-out: pGI50 (converted),1.32 µM
same,CC50,SNB-75; read-out: pLC50 (converted),8.51 µM
same,TGI,SNB-75; read-out: pTGI,3.31 µM
same,GI50,LOX IMVI,1.07 µM
same,TGI,LOX IMVI,10.3 µM
same,CC50,LOX IMVI; read-out: LC50,34.4 µM
same,GI50,LOX IMVI; read-out: pGI50 (converted),1.07 µM
same,CC50,LOX IMVI; read-out: pLC50 (converted),34.7 µM
same,TGI,LOX IMVI; read-out: pTGI,10.2 µM
same,GI50,M14,2 µM
same,TGI,M14,7.93 µM
same,CC50,M14; read-out: LC50,34.3 µM
same,GI50,M14; read-out: pGI50 (converted),2 µM
same,CC50,M14; read-out: pLC50 (converted),34.7 µM
same,TGI,M14; read-out: pTGI,7.94 µM
same,GI50,SK-MEL-2,1.47 µM
same,TGI,SK-MEL-2,6 µM
same,CC50,SK-MEL-2; read-out: LC50,> 100 µM
same,GI50,SK-MEL-2; read-out: pGI50 (converted),1.48 µM
same,CC50,SK-MEL-2; read-out: pLC50 (converted),100 µM
same,TGI,SK-MEL-2; read-out: pTGI,6.03 µM
same,GI50,SK-MEL-5,1.78 µM
same,TGI,SK-MEL-5,4.96 µM
same,CC50,SK-MEL-5; read-out: LC50,17.4 µM
same,GI50,SK-MEL-5; read-out: pGI50 (converted),1.78 µM
same,CC50,SK-MEL-5; read-out: pLC50 (converted),17.4 µM
same,TGI,SK-MEL-5; read-out: pTGI,5.01 µM
same,GI50,OVCAR-4,2.57 µM
same,TGI,OVCAR-4,37 µM
same,CC50,OVCAR-4; read-out: LC50,> 100 µM
same,GI50,OVCAR-4; read-out: pGI50 (converted),2.63 µM
same,CC50,OVCAR-4; read-out: pLC50 (converted),100 µM
same,TGI,OVCAR-4; read-out: pTGI,0.372 µM
same,GI50,OVCAR-5,1.85 µM
same,TGI,OVCAR-5,15 µM
same,CC50,OVCAR-5; read-out: LC50,> 100 µM
same,GI50,OVCAR-5; read-out: pGI50 (converted),1.78 µM
same,CC50,OVCAR-5; read-out: pLC50 (converted),100 µM
same,TGI,OVCAR-5; read-out: pTGI,15.1 µM
same,GI50,786-0,1.98 µM
same,TGI,786-0,10.7 µM
same,CC50,786-0; read-out: LC50,> 100 µM
same,GI50,786-0; read-out: pGI50 (converted),1.86 µM
same,CC50,786-0; read-out: pLC50 (converted),100 µM
same,TGI,786-0; read-out: pTGI,0.135 µM
same,GI50,A498,1.25 µM
same,TGI,A498,3.44 µM
same,CC50,A498; read-out: LC50,9.47 µM
same,GI50,A498; read-out: pGI50 (converted),1.12 µM
same,CC50,A498; read-out: pLC50 (converted),9.55 µM
same,TGI,A498; read-out: pTGI,3.31 µM
same,GI50,ACHN,0.81 µM
same,TGI,ACHN,10.7 µM
same,CC50,ACHN; read-out: LC50,49.1 µM
same,GI50,ACHN; read-out: pGI50 (converted),0.813 µM
same,CC50,ACHN; read-out: pLC50 (converted),49 µM
same,TGI,ACHN; read-out: pTGI,10.7 µM
same,GI50,CAKI-1,1.02 µM
same,TGI,CAKI-1,8.35 µM
same,CC50,CAKI-1; read-out: LC50,> 100 µM
same,GI50,CAKI-1; read-out: pGI50 (converted),1.05 µM
same,CC50,CAKI-1; read-out: pLC50 (converted),100 µM
same,TGI,CAKI-1; read-out: pTGI,8.13 µM
same,GI50,RXF 393,0.25 µM
same,TGI,RXF 393,0.79 µM
same,CC50,RXF 393; read-out: LC50,4.25 µM
same,GI50,RXF 393; read-out: pGI50 (converted),0.251 µM
same,CC50,RXF 393; read-out: pLC50 (converted),4.27 µM
same,TGI,RXF 393; read-out: pTGI,0.794 µM
same,GI50,TK-10,2 µM
same,TGI,TK-10,10.9 µM
same,CC50,TK-10; read-out: LC50,> 100 µM
same,GI50,TK-10; read-out: pGI50 (converted),2 µM
same,CC50,TK-10; read-out: pLC50 (converted),100 µM
same,TGI,TK-10; read-out: pTGI,11 µM
same,GI50,DU-145,1.3 µM
same,TGI,DU-145,9.52 µM
same,CC50,DU-145; read-out: LC50,> 100 µM
same,GI50,DU-145; read-out: pGI50 (converted),2.63 µM
same,CC50,DU-145; read-out: pLC50 (converted),100 µM
same,TGI,DU-145; read-out: pTGI,9.55 µM
same,GI50,T47D,2.48 µM
same,TGI,T47D,13.3 µM
same,CC50,T47D; read-out: LC50,> 100 µM
same,GI50,T47D; read-out: pGI50 (converted),3.09 µM
same,CC50,T47D; read-out: pLC50 (converted),100 µM
same,TGI,T47D; read-out: pTGI,12.9 µM
